Measurements from patent publication US20170210723A1, “MOLECULES HAVING PESTICIDAL UTILITY, AND INTERMEDIATES, COMPOSITIONS, AND PROCESSES, RELATED THERETO” (priority 2016, published 2017).

Legend:
[1] = tested on: Cabbage Looper (Trichoplusia ni); experiment: Bioassays on CL, 128-well diet tray assay; format: in vivo; settings: Trichoplusia ni, 168 h; 50 μg/cm^2 on artificial diet, second instar larvae, five to seven days; read-out: CL % Control (or Mortality) rating
Procedure: Bioassays on CL were conducted using a 128-well diet tray assay.
One to five second instar CL larvae were placed in each well (3 mL) of the diet tray that had been previously filled with 1 mL of artificial diet to which 50 μg/cm^2 of the test molecule (dissolved in 50 μL of 90:10 acetone-water mixture) had been applied (to each of eight wells) and then allowed to dry. Trays were covered with a clear self-adhesive cover and held at 25° C., 14:10 light-dark for five to seven days. Percent mortality was recorded for the larvae in each well; activity in the eight wells was then averaged. The results are indicated in the table entitled “Table ABC: Biological Results” (See Table Section).
(§1) Bioassays on BAW and CL were conducted according to the procedures outlined in Example A: Bioassays on Beet Armyworm (“BAW”) and Cabbage Looper (“CL”) using the indicated concentrations.

[2] = tested on: Beet Armyworm (Spodoptera exigua); experiment: Bioassays on BAW, 128-well diet tray assay; format: in vivo; settings: Spodoptera exigua, 168 h; 50 μg/cm^2 on artificial diet, second instar larvae, five to seven days; read-out: BAW % Control (or Mortality) rating
Procedure: Bioassays on BAW were conducted using a 128-well diet tray assay. One to five second instar BAW larvae were placed in each well (3 mL) of the diet tray that had been previously filled with 1 mL of artificial diet to which 50 μg/cm^2 of the test molecule (dissolved in 50 μL of 90:10 acetone-water mixture) had been applied (to each of eight wells) and then allowed to dry. Trays were covered with a clear self-adhesive cover and held at 25° C., 14:10 light-dark for five to seven days. Percent mortality was recorded for the larvae in each well; activity in the eight wells was then averaged. The results are indicated in the table entitled “Table ABC: Biological Results” (See Table Section).
as §1

## C[C@H](C[S+]([O-])CC(F)(F)F)NC(=O)c1ccc(/C=C/C(c2cc(Cl)c(Cl)c(Cl)c2)C(F)(F)F)cc1C(F)(F)F (stereo partly drawn) [F23, 4-((E)-4,4,4-Trifluoro-3-(3,4,5-trichlorophenyl)but-1-en-1-yl)-N-((2R)-1-((2,2,2-trifluoroethyl)sulfinyl)propan-2-yl)-2-(trifluoromethyl)benzamide]
[1]
  mortality at 50 µg/cm2: 50 to 100%
[2]
  mortality at 50 µg/cm2: 50 to 100%

## C[C@H](CSCC(F)(F)F)NC(=O)c1ccc(/C=C/C(c2cc(Cl)c3c(c2)OCO3)C(F)(F)F)cc1C(F)(F)F (stereo partly drawn) [F75, 4-((E)-3-(7-Chlorobenzo[d][1,3]dioxol-5-yl)-4,4,4-trifluorobut-1-en-1-yl)-N—((R)-1-((2,2,2-trifluoroethyl)thio)propan-2-yl)-2-(trifluoromethyl)benzamide]
[1]
  mortality at 50 µg/cm2: 50 to 100%
[2]
  mortality at 50 µg/cm2: 50 to 100%

## CC(C)(C[S+]([O-])CC(F)(F)F)NC(=O)c1ccc(/C=C/C(c2cc(Cl)c(Cl)c(Cl)c2)C(F)(F)F)cc1C(F)(F)F (centres unmarked) [F47, (E)-N-(2-Methyl-1-((2,2,2-trifluoroethyl)sulfinyl)propan-2-yl)-4-(4,4,4-trifluoro-3-(3,4,5-trichlorophenyl)but-1-en-1-yl)-2-(trifluoromethyl)benzamide]
[1]
  mortality at 50 µg/cm2: 50 to 100%
[2]
  mortality at 50 µg/cm2: 50 to 100%

## CC(F)(F)C(/C=C/c1ccc(C(=O)NCC[S+]([O-])CCF)c(C(F)(F)F)c1)c1cc(Cl)c(Cl)c(Cl)c1 (centres unmarked) [F129, (E)-4-(4,4-Difluoro-3-(3,4,5-trichlorophenyl)pent-1-en-1-yl)-N-(2-((2-fluoroethyl)sulfinyl)ethyl)-2-(trifluoromethyl)benzamide]
[1]
  mortality at 50 µg/cm2: 50 to 100%
[2]
  mortality at 50 µg/cm2: 50 to 100%

## CC(C)[C@H](C[S+]([O-])CC(F)(F)F)NC(=O)c1ccc(/C=C/C(c2cc(Cl)c(Cl)c(Cl)c2)C(F)(F)F)cc1C(F)(F)F (stereo partly drawn) [F15, N-((2R)-3-methyl-1-((2,2,2-trifluoroethyl)sulfinyl)butan-2-yl)-4-((E)-4,4,4-trifluoro-3-(3,4,5-trichlorophenyl)but-1-en-1-yl)-2-(trifluoromethyl)benzamide]
[1]
  mortality at 50 µg/cm2: 50 to 100%
[2]
  mortality at 50 µg/cm2: 50 to 100%

## CCO/C(=C/C(c1cc(Cl)c(Cl)c(Cl)c1)C(F)(F)F)c1ccc(C(=O)N[C@H](C)CSCC(F)(F)F)c(C(F)(F)F)c1 (stereo partly drawn) [F33, 4-((E)-1-ethoxy-4,4,4-trifluoro-3-(3,4,5-trichlorophenyl)but-1-en-1-yl)-N—((R)-1-((2,2,2-trifluoroethyl)thio)propan-2-yl)-2-(trifluoromethyl)benzamide]
[1]
  mortality at 50 µg/cm2: 50 to 100%
[2]
  mortality at 50 µg/cm2: 50 to 100%

## O=C(NCCS(=O)(=O)CC(F)(F)F)c1ccc(/C=C/C(c2cc(Cl)c(Cl)c(Cl)c2)C(F)(F)F)cc1Br (centres unmarked) [F10, (E)-2-Bromo-4-(4,4,4-trifluoro-3-(3,4,5-trichlorophenyl)but-1-en-1-yl)-N-(2-((2,2,2-trifluoroethyl)sulfonyl)ethyl)benzamide]
[1]
  mortality at 50 µg/cm2: 50 to 100%
[2]
  mortality at 50 µg/cm2: 50 to 100%

## C[C@H](CSCC(F)(F)F)NC(=O)c1ccc(/C=C/C(c2cc(Cl)c(Cl)c(Cl)c2)C(F)(F)F)cc1 (stereo partly drawn) [FC74, 4-((E)-4,4,4-Trifluoro-3-(3,4,5-trichlorophenyl)but-1-en-1-yl)-N—((R)-1-((2,2,2-trifluoroethyl)thio)propan-2-yl)benzamide]
[1]
  mortality at 50 µg/cm2: 50 to 100%
[2]
  mortality at 50 µg/cm2: 50 to 100%

## C[C@H](C[S+]([O-])CC(F)(F)F)NC(=O)c1ccc(/C=C/C(c2cc(Cl)c(Cl)c(Cl)c2)C(F)(F)F)cc1 (stereo partly drawn) [FC77, 4-((E)-4,4,4-Trifluoro-3-(3,4,5-trichlorophenyl)but-1-en-1-yl)-N-((2R)-1-((2,2,2-trifluoroethyl)sulfinyl)propan-2-yl)benzamide]
[1]
  mortality at 50 µg/cm2: 50 to 100%
[2]
  mortality at 50 µg/cm2: 50 to 100%

## CC[C@H](C[S+]([O-])CC(F)(F)F)NC(=O)c1ccc(/C=C/C(c2cc(Cl)c(Cl)c(Cl)c2)C(F)(F)F)cc1C(F)(F)F (stereo partly drawn) [F18, 4-((E)-4,4,4-Trifluoro-3-(3,4,5-trichlorophenyl)but-1-en-1-yl)-N-((2R)-1-((2,2,2-trifluoroethyl)sulfinyl)butan-2-yl)-2-(trifluoromethyl)benzamide]
[1]
  mortality at 50 µg/cm2: 50 to 100%
[2]
  mortality at 50 µg/cm2: 50 to 100%

## C[C@H](CS(=O)(=O)CC(F)(F)F)NC(=O)c1ccc(/C=C/C(c2cc(F)c(F)c(F)c2)C(C)(F)F)cc1C(F)(F)F (stereo partly drawn) [F136, 4-((E)-4,4-Difluoro-3-(3,4,5-trifluorophenyl)pent-1-en-1-yl)-N—((R)-1-((2,2,2-trifluoroethyl)sulfonyl)propan-2-yl)-2-(trifluoromethyl)benzamide]
[1]
  mortality at 50 µg/cm2: 50 to 100%
[2]
  mortality at 50 µg/cm2: 50 to 100%

## C[C@H](CSCC(F)(F)F)NC(=O)c1ccc(/C=C/C(c2cc(Cl)c(Cl)c(Cl)c2)C(C)(F)F)cc1C(F)(F)F (stereo partly drawn) [F108, 4-((E)-4,4-Difluoro-3-(3,4,5-trichlorophenyl)pent-1-en-1-yl)-N—((R)-1-((2,2,2-trifluoroethyl)thio)propan-2-yl)-2-(trifluoromethyl)benzamide]
[1]
  mortality at 50 µg/cm2: 50 to 100%
[2]
  mortality at 50 µg/cm2: 50 to 100%

## C[C@H](CS(=O)(=O)CC(F)(F)F)NC(=O)c1ccc(/C=C/C(c2cc(Cl)c(Cl)c(Br)c2)C(F)(F)F)cc1C(F)(F)F (stereo partly drawn) [F114, 4-((E)-3-(3-Bromo-4,5-dichlorophenyl)-4,4,4-trifluorobut-1-en-1-yl)-N—((R)-1-((2,2,2-trifluoroethyl)sulfonyl)propan-2-yl)-2-(trifluoromethyl)benzamide]
[1]
  mortality at 50 µg/cm2: 50 to 100%
[2]
  mortality at 50 µg/cm2: 50 to 100%

## C[C@H](CSCC(F)(F)F)NC(=O)c1ccc(/C=C/C(c2ccc(Cl)c(Cl)c2)C(F)(F)F)cc1Br (stereo partly drawn) [F137, 2-Bromo-4-((E)-3-(3,4-dichlorophenyl)-4,4,4-trifluorobut-1-en-1-yl)-N—((R)-1-((2,2,2-trifluoroethyl)thio)propan-2-yl)benzamide]
[1]
  mortality at 50 µg/cm2: 50 to 100%
[2]
  mortality at 50 µg/cm2: 50 to 100%

## C[C@H](CS(=O)(=O)CC(F)(F)F)NC(=O)c1ccc(/C=C/C(c2cc(Cl)c3c(c2)OCO3)C(F)(F)F)cc1C(F)(F)F (stereo partly drawn) [F76, 4-((E)-3-(7-Chlorobenzo[d][1,3]dioxol-5-yl)-4,4,4-trifluorobut-1-en-1-yl)-N—((R)-1-((2,2,2-trifluoroethyl)sulfonyl)propan-2-yl)-2-(trifluoromethyl)benzamide]
[1]
  mortality at 50 µg/cm2: 50 to 100%
[2]
  mortality at 50 µg/cm2: 50 to 100%

## CC[C@H](CS(=O)(=O)CC1CC1(F)F)NC(=O)c1ccc(/C=C/C(c2cc(Cl)c(Cl)c(Cl)c2)C(F)(F)F)cc1Br (stereo partly drawn) [F19, 2-Bromo-N-((2R)-1-(((2,2-difluorocyclopropyl)methyl)sulfonyl)butan-2-yl)-4-((E)-4,4,4-trifluoro-3-(3,4,5-trichlorophenyl)but-1-en-1-yl)benzamide]
[1]
  mortality at 50 µg/cm2: 50 to 100%
[2]
  mortality at 50 µg/cm2: 50 to 100%

## C=Cc1cc(C(/C=C/c2ccc(C(=O)N[C@H](C)CS(=O)(=O)CC(F)(F)F)c(C(F)(F)F)c2)C(F)(F)F)cc(Cl)c1Cl (stereo partly drawn) [F115, 4-((E)-3-(3,4-Dichloro-5-vinylphenyl)-4,4,4-trifluorobut-1-en-1-yl)-N—((R)-1-((2,2,2-trifluoroethyl)sulfonyl)propan-2-yl)-2-(trifluoromethyl)benzamide]
[1]
  mortality at 50 µg/cm2: 50 to 100%
[2]
  mortality at 50 µg/cm2: 50 to 100%

## C[C@H](CS(=O)(=O)CC(F)(F)F)NC(=O)c1ccc(/C=C/C(c2ccc(Cl)c(Cl)c2)C(F)(F)F)cc1Br (stereo partly drawn) [F124, 2-Bromo-4-((E)-3-(3,4-dichlorophenyl)-4,4,4-trifluorobut-1-en-1-yl)-N—((R)-1-((2,2,2-trifluoroethyl)sulfonyl)propan-2-yl)benzamide]
[1]
  mortality at 50 µg/cm2: 50 to 100%
[2]
  mortality at 50 µg/cm2: 50 to 100%

## C[C@H](C[S+]([O-])CCF)NC(=O)c1ccc(/C=C/C(c2cc(Cl)c(Cl)c(Cl)c2)C(C)(F)F)cc1C(F)(F)F (stereo partly drawn) [F121, 4-((E)-4,4-Difluoro-3-(3,4,5-trichlorophenyl)pent-1-en-1-yl)-N-((2R)-1-((2-fluoroethyl)sulfinyl)propan-2-yl)-2-(trifluoromethyl)benzamide]
[1]
  mortality at 50 µg/cm2: 50 to 100%
[2]
  mortality at 50 µg/cm2: 50 to 100%

## C[C@H](CSCC(F)(F)F)NC(=O)c1ccc(/C=C/C(c2cc(Cl)c(Cl)c(Cl)c2)C(F)(F)F)cc1C(F)F (stereo partly drawn) [F32, 2-(Difluoromethyl)-4-((E)-4,4,4-trifluoro-3-(3,4,5-trichlorophenyl)but-1-en-1-yl)-N—((R)-1-((2,2,2-trifluoroethyl)thio)propan-2-yl)benzamide]
[1]
  mortality at 50 µg/cm2: 50 to 100%
[2]
  mortality at 50 µg/cm2: 50 to 100%

## CCCS(=O)(=O)C[C@@H](C)NC(=O)c1ccc(/C=C/C(c2cc(Cl)c(Cl)c(Cl)c2)C(F)(F)F)cc1C(F)(F)F (stereo partly drawn) [F79, N—((R)-1-(Propylsulfonyl)propan-2-yl)-4-((E)-4,4,4-trifluoro-3-(3,4,5-trichlorophenyl)but-1-en-1-yl)-2-(trifluoromethyl)benzamide]
[1]
  mortality at 50 µg/cm2: 50 to 100%
[2]
  mortality at 50 µg/cm2: 50 to 100%

## CC(C)S(=O)(=O)C[C@@H](C)NC(=O)c1ccc(/C=C/C(c2cc(Cl)c(Cl)c(Cl)c2)C(F)(F)F)cc1C(F)(F)F (stereo partly drawn) [F80, N—((R)-1-(Isopropylsulfonyl)propan-2-yl)-4-((E)-4,4,4-trifluoro-3-(3,4,5-trichlorophenyl)but-1-en-1-yl)-2-(trifluoromethyl)benzamide]
[1]
  mortality at 50 µg/cm2: 50 to 100%
[2]
  mortality at 50 µg/cm2: 50 to 100%
